# Results as given in US6610489B2, “Pharmacogenomics and identification of drug targets by reconstruction of signal transduction pathways based on sequences of accessible regions” (Sangamo BioSciences, Inc., priority 2000, dated 2003).
# Legend:
# [1] = test system: p16 CpG island sequences associated with acetylated histone H3 in HCT15 cells; experiment: Chromatin immunoprecipitation with anti-acetylated histone H3 antibody, real-time quantitative PCR (Taqman); format: cell-based, human; details: HCT15 cells treated with 2 μM 5-azacytidine during three-day growth, compared to untreated cells; VEGF gene region as control sequence
# Source text: In this example, chromatin immunoprecipitation (ChIP) was used to enrich a population of DNA fragments comprising regulatory sequences for the p16 tumor suppressor gene, by virtue of their association with acetylated histone H3. A CpG island is located in the p16 gene (GenBank Accession No. AF022809), between about 30 nucleotide pairs upstream, and about 590 nucleotide pairs downstream of the transcriptional startsite identified by Hara et al. (1996) Mol. Cell. Biol. 16:859-867. One form of regulation of genes associated with CpG islands is through methylation of C residues within the CpG island. […]
# Untreated and 5-azacytidine-treated HCT15 cells were analyzed by chromatin immunoprecipitation to test for a specific association of acetylated H3 with unmethylated (i.e., active) CpG island sequences. […] Then, in both portions, formaldehyde crosslinks were reversed, DNA was purified, and the purified DNA was analyzed by means of a real-time quantitative PCR assay, known colloquially as “Taqman®.” The DNA was analyzed for the relative proportion of two sequences: (1) a region adjacent to the CpG island located in the 5′-untranslated region of the p16 gene (see above), and (2) a portion of the VEGF gene corresponding to the region from 2324 to 2246 nucleotide pairs upstream of the transcription initiation site.
# p16 gene = details: HCT15 cells, in which the p16 CpG island is methylated and the p16 gene is inactive; cited from earlier work
structure (smiles),measurement,setting,value
Nc1ncn([C@@H]2O[C@H](CO)[C@@H](O)[C@H]2O)c(=O)n1 [5-azacytidine],enrichment of p16 CpG island sequences associated with acetylated H3,[1],approximately 10 fold
same,p16 transcription,p16 gene,activation of p16 transcription
